Experimental data: patent US20260132129A1 (Genesis Therapeutics, Inc., priority 2022, published 2026)

Target: T1, PI3Kα H1047R (T47D cells) (Homo sapiens, UniProt P42336, H1047R)
T1 construct: endogenous in cells; host or cells: T47D cells
Experiment: PI3Kα cellular assay: pAKT HTRF in T47D cells after EGF stimulation
Format: cell-based
Conditions: for IC50: T47D cells (PI3Kα H1047R), pAKT S473 HTRF, EGF stimulation; for T47D pAKT S473 HTRF IC50 (H1047R): T47D (H1047R) selectivity over SKBR3 (WT): selectivity of T47D (H1047R) over SKBR3 (WT) pAKT IC50
How it was run: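 pAKT read by HTRF in lysates of EGF-stimulated (20 ng/mL, 10 min) T47D H1047R cells. Before stimulation, serum-starved cells (16 h) received compound for 1 h at 37 °C, dosed from 10,000 nM down to 0.5 nM in 3-fold steps.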

T1 sequence (P42336 whole entry H1047R): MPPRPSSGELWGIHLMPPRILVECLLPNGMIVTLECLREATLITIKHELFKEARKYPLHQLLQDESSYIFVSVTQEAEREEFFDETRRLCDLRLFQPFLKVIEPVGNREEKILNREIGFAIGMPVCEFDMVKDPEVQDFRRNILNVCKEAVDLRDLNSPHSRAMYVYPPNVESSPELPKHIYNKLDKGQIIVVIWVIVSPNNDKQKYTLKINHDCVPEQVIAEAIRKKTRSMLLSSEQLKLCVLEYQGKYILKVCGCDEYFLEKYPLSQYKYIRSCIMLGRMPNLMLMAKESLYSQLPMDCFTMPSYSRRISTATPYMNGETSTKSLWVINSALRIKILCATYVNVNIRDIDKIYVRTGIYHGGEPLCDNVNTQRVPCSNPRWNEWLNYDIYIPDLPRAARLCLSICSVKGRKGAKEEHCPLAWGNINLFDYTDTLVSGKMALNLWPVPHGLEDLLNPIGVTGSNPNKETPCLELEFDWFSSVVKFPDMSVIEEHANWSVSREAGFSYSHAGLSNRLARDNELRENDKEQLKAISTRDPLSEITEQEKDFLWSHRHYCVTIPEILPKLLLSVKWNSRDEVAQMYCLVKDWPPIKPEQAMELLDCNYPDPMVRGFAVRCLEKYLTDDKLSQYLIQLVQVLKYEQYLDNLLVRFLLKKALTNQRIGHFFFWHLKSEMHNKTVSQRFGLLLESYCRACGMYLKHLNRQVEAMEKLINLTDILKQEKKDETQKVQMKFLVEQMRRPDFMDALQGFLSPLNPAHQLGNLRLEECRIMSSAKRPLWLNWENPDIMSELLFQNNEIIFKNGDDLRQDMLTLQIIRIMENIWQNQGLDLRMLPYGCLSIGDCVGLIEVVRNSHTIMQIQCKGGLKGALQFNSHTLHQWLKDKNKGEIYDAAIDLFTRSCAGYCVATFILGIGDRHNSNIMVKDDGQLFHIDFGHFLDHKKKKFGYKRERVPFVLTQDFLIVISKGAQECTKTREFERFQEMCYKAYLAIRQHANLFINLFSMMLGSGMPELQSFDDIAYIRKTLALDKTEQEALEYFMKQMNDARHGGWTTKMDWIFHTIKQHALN
T1 sequence (P27986 whole entry partner): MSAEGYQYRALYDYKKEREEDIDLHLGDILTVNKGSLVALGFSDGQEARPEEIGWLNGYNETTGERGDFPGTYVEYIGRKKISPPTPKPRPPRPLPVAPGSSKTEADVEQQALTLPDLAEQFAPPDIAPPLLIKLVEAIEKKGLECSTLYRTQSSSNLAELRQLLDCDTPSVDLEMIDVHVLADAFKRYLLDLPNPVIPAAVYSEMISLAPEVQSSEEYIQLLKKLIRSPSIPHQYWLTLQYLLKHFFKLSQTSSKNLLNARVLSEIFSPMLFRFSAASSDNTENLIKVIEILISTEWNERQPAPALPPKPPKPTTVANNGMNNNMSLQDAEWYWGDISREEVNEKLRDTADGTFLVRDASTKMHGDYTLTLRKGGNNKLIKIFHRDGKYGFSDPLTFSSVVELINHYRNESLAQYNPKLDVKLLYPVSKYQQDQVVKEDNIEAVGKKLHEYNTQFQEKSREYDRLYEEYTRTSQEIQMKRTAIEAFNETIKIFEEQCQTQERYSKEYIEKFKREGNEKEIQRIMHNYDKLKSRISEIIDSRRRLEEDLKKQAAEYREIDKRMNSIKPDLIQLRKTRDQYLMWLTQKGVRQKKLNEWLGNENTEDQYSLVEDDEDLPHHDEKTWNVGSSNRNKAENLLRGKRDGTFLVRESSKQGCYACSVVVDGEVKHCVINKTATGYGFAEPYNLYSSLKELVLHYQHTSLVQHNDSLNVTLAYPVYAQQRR

Compound | IC50 [nM] | T47D pAKT S473 HTRF IC50 (H1047R): T47D (H1047R) selectivity over SKBR3 (WT)
CC(=O)Nc1nn(C)c2ccc(-c3cc(=O)n4cc(C)cc(C(C)Nc5ccccc5C(=O)O)c4n3)cc12 (centres unmarked) [Compound 792] | > 2000 | C (C denotes ≤5-fold)
CC(=O)Nc1nn(C)c2ccc(-c3cc(=O)n4cc(C)cc([C@@H](C)Nc5ccccc5C(=O)O)c4n3)cc12 [Compound 793] | > 2000 | C (C denotes ≤5-fold)
C=C(C)Nc1nn(C)c2ccc(-c3cc(=O)n4cc(C)cc([C@H](C)Nc5ccccc5C(=O)O)c4n3)cc12 [Compound 794] | 100 to 500 | A (A denotes >20-fold)
C=C(C)N1CCC([C@@H]2C[C@@H]3CN(c4cc(=O)n5cc(C)cc([C@H](C)Nc6ccccc6C(=O)O)c5n4)C[C@@H]3C2)CC1 [Compound 796] | > 2000 | C (C denotes ≤5-fold)
Cc1cc([C@@H](C)Nc2ccccc2C(=O)O)c2nc(-c3ccc4c(c3)c(C)cn4C)cc(=O)n2c1 [Compound 797] | > 2000 | C (C denotes ≤5-fold)
Cc1cc([C@H](C)Nc2ccccc2C(=O)O)c2nc(-c3ccc4c(c3)c(C)cn4C)cc(=O)n2c1 [Compound 798] | < 100 | A (A denotes >20-fold)
Cc1cc(C(C)Nc2ccccc2C(=O)O)c2nc(-n3cnc4ccc(O)cc43)cc(=O)n2c1 (centres unmarked) [Compound 799] | > 2000 | C (C denotes ≤5-fold)
Cc1cc(C(C)Nc2ccccc2C(=O)O)c2nc(-n3cnc4ccc(O)cc43)cc(=O)n2c1 (centres unmarked) [Compound 801] | > 2000 | C (C denotes ≤5-fold)
Cc1cc([C@@H](C)Nc2cccc3nonc23)c2nc(N3CCOCC3)cc(=O)n2c1 [Compound 802] | > 2000 | C (C denotes ≤5-fold)
Cc1cc([C@H](C)Nc2ccccc2C(=O)O)c2nc(-c3cnc4c(c3)c(C)c(C)n4C)c(C)c(=O)n2c1 [Compound 805] | > 2000 | C (C denotes ≤5-fold)
Cc1cc(CCNc2ccc(F)cc2C(=O)O)c2nc(N3CCOCC3)cc(=O)n2c1 [Compound 806] | > 2000 | C (C denotes ≤5-fold)
Cc1cc([C@H](C)Nc2ccccc2C(=O)O)c2nc(-c3ccc4c(c3)c(C(F)F)nn4C)cc(=O)n2c1 [Compound 808] | > 2000 | C (C denotes ≤5-fold)
Cc1cc([C@@H](C)Nc2ccccc2C(=O)O)c2nc(-c3ccc4snc(N)c4c3)cc(=O)n2c1 [Compound 809] | < 100 | A (A denotes >20-fold)
Cc1cc([C@H](C)Nc2ccccc2C(=O)O)c2nc(-c3ccc4snc(N)c4c3)cc(=O)n2c1 [Compound 810] | > 2000 | C (C denotes ≤5-fold)
Cc1cc([C@H](C)Nc2ccccc2C(=O)O)c2nc(-c3cc4c(cc3C)CC(N)=N4)cc(=O)n2c1 [Compound 811] | 500 to 2000 | B (B denotes 20-fold≥value>5-fold)
Cc1cc([C@H](C)Nc2ccccc2C(=O)O)c2nc(-c3cnc4cc(O)ccn34)cc(=O)n2c1 [Compound 812] | > 2000 | C (C denotes ≤5-fold)
Cc1cc(C(C)Nc2ccccc2C(=O)O)c2nc(-c3c(C)ccc4[nH]ncc34)c(C)c(=O)n2c1 (centres unmarked) [Compound 813] | > 2000 | C (C denotes ≤5-fold)
Cc1cc([C@H](C)Nc2ccccc2C(=O)O)c2nc(-c3c(C)ccc4[nH]ncc34)cc(=O)n2c1 [Compound 814] | > 2000 | C (C denotes ≤5-fold)
Cc1cc([C@H](C)Nc2ccccc2C(=O)O)c2nc(-c3c(C)ccc4c3cnn4C)cc(=O)n2c1 [Compound 815] | > 2000 | C (C denotes ≤5-fold)
Cc1cc([C@@H](C)Nc2ccccc2C(=O)O)c2nc(-c3c(C)ccc4c3cnn4C)cc(=O)n2c1 [Compound 816] | > 2000 | C (C denotes ≤5-fold)

Compound | IC50 [nM] | T47D pAKT S473 HTRF IC50 (H1047R): T47D (H1047R) selectivity over SKBR3 (WT)
Cc1cc(C(C)Nc2ccccc2C(=O)O)c2nc(-c3c(C)ccc4c3cnn4C)cc(=O)n2c1 (centres unmarked) [Compound 817] | > 2000 | C (C denotes ≤5-fold)
Cc1cc(C(C)Nc2ccccc2C(=O)O)c2nc(-c3ccc4c(C)nn(C)c4c3)cc(=O)n2c1 (centres unmarked) [Compound 818] | < 100 | A (A denotes >20-fold)
Cc1cc([C@@H](C)Nc2ccccc2C(=O)O)c2nc(-c3ccc4c(C)nn(C)c4c3)cc(=O)n2c1 [Compound 819] | < 100 | A (A denotes >20-fold)
Cc1cc([C@H](C)Nc2ccccc2C(=O)O)c2nc(-c3ccc4c(C)nn(C)c4c3)cc(=O)n2c1 [Compound 820] |  | C (C denotes ≤5-fold)
Cc1cc(C(C)Nc2ccccc2C(=O)O)c2nc(-c3ccc4c(c3)CC(F)(F)C4)cc(=O)n2c1 (centres unmarked) [Compound 821] | 100 to 500 | A (A denotes >20-fold)
Cc1cc([C@@H](C)Nc2ccccc2C(=O)O)c2nc(-c3ccc4c(c3)CC(F)(F)C4)cc(=O)n2c1 [Compound 822] | < 100 | A (A denotes >20-fold)
Cc1cc([C@H](C)Nc2ccccc2C(=O)O)c2nc(-c3ccc4c(c3)CC(F)(F)C4)cc(=O)n2c1 [Compound 823] | > 2000 | C (C denotes ≤5-fold)
Cc1cc([C@@H](C)Nc2ccccc2C(=O)O)c2nc(-n3cnc4ccc(O)cc43)cc(=O)n2c1 [Compound 826] | 500 to 2000 | B (B denotes 20-fold≥value>5-fold)
CC(=O)N=S(C)(=O)c1ccccc1N[C@H](C)c1cc(C)cn2c(=O)cc(N3CCOCC3)nc12 (some centres unmarked) [Compound 827] | > 2000 | C (C denotes ≤5-fold)
CC(=O)N=S(C)(=O)c1ccccc1N[C@@H](C)c1cc(C)cn2c(=O)cc(N3CCOCC3)nc12 (some centres unmarked) [Compound 828] | 500 to 2000 | B (B denotes 20-fold≥value>5-fold)
CCC(=O)N=S(C)(=O)c1ccccc1N[C@@H](C)c1cc(C)cn2c(=O)cc(N3CCOCC3)nc12 (some centres unmarked) [Compound 829] | > 2000 | C (C denotes ≤5-fold)
Cc1cc(C(C)Nc2ccccc2-c2ccnnc2)c2nc(N3Cc4ccccc4C3)c(C3CC3)c(=O)n2c1 (centres unmarked) [Compound 832] | 500 to 2000 | B (B denotes 20-fold≥value>5-fold)
Cc1cc(C(C)Nc2ccccc2C(=O)O)c2nc(-c3ccc4c(c3)CC(F)(F)C4)c(C)c(=O)n2c1 (centres unmarked) [Compound 833] | 100 to 500 | A (A denotes >20-fold)
Cc1cc(C(C)NC2CCN(S(=O)(=O)N(C)C)C2)c2nc(N3Cc4ccccc4C3)cc(=O)n2c1 (centres unmarked) [Compound 834] | > 2000 | C (C denotes ≤5-fold)
CNS(=O)(=O)c1ccccc1NC(C)c1cc(C)cn2c(=O)cc(N3Cc4ccccc4C3)nc12 (centres unmarked) [Compound 835] | 100 to 500 | A (A denotes >20-fold)
Cc1cc(C(C)N(C)c2ccccc2S(N)(=O)=O)c2nc(N3Cc4ccccc4C3)cc(=O)n2c1 (centres unmarked) [Compound 836] | > 2000 | C (C denotes ≤5-fold)
C=CC(=O)Nc1ccc(C(=O)O)c(NC(C)c2cc(C)cn3c(=O)cc(N4Cc5ccccc5C4)nc23)c1 (centres unmarked) [Compound 840] | > 2000 | C (C denotes ≤5-fold)
Cc1cc([C@@H](C)Nc2ccccc2C(=O)O)c2nc(-c3ccc4[nH]nc(C)c4c3)cc(=O)n2c1 [Compound 841] |  | C (C denotes ≤5-fold)
Cc1cc(C(C)Nc2ccccc2C(=O)O)c2nc(N3C[C@H]4C[C@@H](C5CCN(S(C)(=O)=O)CC5)C[C@H]4C3)cc(=O)n2c1 (some centres unmarked) [Compound 843] |  | B (B denotes 20-fold≥value>5-fold)
Cc1cc(C(C)Nc2ccccc2C(=O)O)c2nc(N3C[C@H]4C[C@@H](C5CCN(S(=O)(=O)N(C)C)CC5)C[C@H]4C3)cc(=O)n2c1 (some centres unmarked) [Compound 844] | 500 to 2000 | B (B denotes 20-fold≥value>5-fold)
